Each structure is given as a SMILES string. pIC50: −log10 of the molar value.

In one assay the target is T1, b-Raf (V600E) (Homo sapiens (Human), UniProt P15056, V600E). Nature of the assay: biochemical.
T1 sequence (P15056 whole entry V600E): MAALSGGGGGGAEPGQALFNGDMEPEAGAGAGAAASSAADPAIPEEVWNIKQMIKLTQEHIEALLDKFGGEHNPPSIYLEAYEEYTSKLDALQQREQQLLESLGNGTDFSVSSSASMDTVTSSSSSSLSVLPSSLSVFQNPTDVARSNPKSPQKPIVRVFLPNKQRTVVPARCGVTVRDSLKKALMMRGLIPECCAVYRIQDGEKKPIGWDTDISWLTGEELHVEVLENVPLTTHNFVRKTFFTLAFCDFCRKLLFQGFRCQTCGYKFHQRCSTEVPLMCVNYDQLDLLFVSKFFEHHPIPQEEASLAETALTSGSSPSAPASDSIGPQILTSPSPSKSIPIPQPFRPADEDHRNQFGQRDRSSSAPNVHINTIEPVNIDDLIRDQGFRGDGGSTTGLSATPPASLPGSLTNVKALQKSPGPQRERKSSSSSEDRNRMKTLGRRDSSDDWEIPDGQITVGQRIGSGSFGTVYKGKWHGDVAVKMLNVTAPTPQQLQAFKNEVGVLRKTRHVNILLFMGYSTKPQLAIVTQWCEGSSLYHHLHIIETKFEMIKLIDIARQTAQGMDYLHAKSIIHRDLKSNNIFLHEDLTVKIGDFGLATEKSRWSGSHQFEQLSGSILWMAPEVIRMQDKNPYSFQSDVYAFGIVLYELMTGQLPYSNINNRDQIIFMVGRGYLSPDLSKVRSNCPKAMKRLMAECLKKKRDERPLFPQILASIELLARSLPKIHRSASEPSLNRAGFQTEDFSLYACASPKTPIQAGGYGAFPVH
Details: not given
Compound `Cc1ccc(NC(=O)c2cn(C)nc2C)cc1-c1cc2[nH]cnc2c(N2CCOCC2)n1` [Example 815, 1,3-dimethyl-N-(4-methyl-3-(4-morpholino-1H-imidazo[4,5-c]pyridin-6-yl)phenyl)-1H-pyrazole-4-carboxamide] had a pIC50 of 7.00.
As for `Cc1ccc(NC(=O)c2ccc(CO)c(C(F)(F)F)c2)cc1-c1cc(N2CCOCC2)c(=O)n(C)c1` [Example 462, 4-(hydroxymethyl)-N-(4-methyl-3-(1-methyl-5-morpholino-6-oxo-1,6-dihydropyridin-3-yl)phenyl)-3-(trifluoromethyl)benzamide], the pIC50 was 8.43.
`Cc1ccc(NC(=O)c2ccnc(C(C)(C)C#N)c2)cc1-c1cc(N2CCOCC2)c(OC(C)C)nn1` [Example 596, 2-(2-cyanopropan-2-yl)-N-(3-(6-isopropoxy-5-morpholinopyridazin-3-yl)-4-methylphenyl)isonicotinamide] gave a pIC50 of 8.89.
In turn, `CCn1cc(C(=O)Nc2ccc(C)c(-c3cc4[nH]cnc4c(N4CCOCC4)n3)c2)c(C)n1` [Example 814, 1-ethyl-3-methyl-N-(4-methyl-3-(4-morpholino-1H-imidazo[4,5-c]pyridin-6-yl)phenyl)-1H-pyrazole-4-carboxamide] had a pIC50 of 7.49.
Still for that read-out and setting: for `CNCc1ccc(C(=O)Nc2cnc(C)c(-c3cc(N4CCOCC4)c4nccn4c3)c2)cc1C(F)(F)F` [Example 885, N-(6-methyl-5-(8-morpholinoimidazo[1,2-a]pyridin-6-yl)pyridin-3-yl)-4-((methylamino)methyl)-3-(trifluoromethyl)benzamide] the value was 7.91; for `Cc1ccc(NC(=O)c2ccnc(C(C)(C)O)c2)cc1-c1cc2[nH]cnc2c(N2CCOCC2)n1` [Example 823, 2(2-hydroxypropan-2-yl)-N-(4-methyl-3-(4-morpholino-1H-imidazo[4,5-c]pyridin-6-yl)phenyl)isonicotinamide], 8.03.
`Cc1ccc(NC(=O)c2ccnc(C(C)(F)F)c2)cc1-c1cc(N2CCOCC2)n(C)c(=O)c1` [Example 471, 2-(1,1-difluoroethyl)-N-(4-methyl-3-(1-methyl-6-morpholino-2-oxo-1,2-dihydropyridin-4-yl)phenyl)isonicotinamide] had a pIC50 of 9.00.
Same read-out and setting: for `Cc1ccc(NC(=O)c2cnnc(C(F)(F)F)c2)cc1-c1cc(N2CCOCC2)c(OC2CCOCC2)nn1` [Example 577, N-(4-methyl-3-(5-morpholino-6-((tetrahydro-2H-pyran-4-yl)oxy)pyridazin-3-yl)phenyl)-6-(trifluoromethyl)pyridazine-4-carboxamide] the value was 9.22.
As for `CNCc1ccc(C(=O)Nc2ccc(C)c(-c3cc(N4CCOCC4)c4nccn4c3)c2)cc1C(F)(F)F` [Example 853, N-(4-methyl-3-(8-morpholinoimidazo[1,2-a]pyridin-6-yl)phenyl)-4-((methylamino)methyl)-3-(trifluoromethyl)benzamide], the pIC50 is 8.62.
As to `Cc1ncc(NC(=O)c2cccc(C(F)(F)F)c2)cc1-c1cnc(O[C@H](C)CO)c(N2CCOCC2)c1` [Example 1021, (R)—N-(6′-((1-hydroxypropan-2-yl)oxy)-2-methyl-5′-morpholino-[3,3′-bipyridin]-5-yl)-3-(trifluoromethyl)benzamide], the pIC50 was 8.59.
`Cc1ccc(NC(=O)c2cccc(-c3nnco3)c2)cc1-c1cc2[nH]cnc2c(N2CCOCC2)n1` [Example 822, N-(4-methyl-3-(4-morpholino-1H-imidazo[4,5-c]pyridin-6-yl)phenyl)-3-(1,3,4-oxadiazol-2-yl)benzamide]: the pIC50 is 8.11.
Turning to `Cc1ccc(C(=O)Nc2ccc(CN)c(C(F)(F)F)c2)cc1-c1cc(N2CCOCC2)c(=O)n(C)c1` [Example 467, N-(4-(aminomethyl)-3-(trifluoromethyl)phenyl)-4-methyl-3-(1-methyl-5-morpholino-6-oxo-1,6-dihydropyridin-3-yl)benzamide], the pIC50 is 7.92.
Regarding `Cc1ccc(NC(=O)c2cc(C3CC3)nn2C)cc1-c1cc2[nH]cnc2c(N2CCOCC2)n1` [Example 818, 3-cyclopropyl-1-methyl-N-(4-methyl-3-(4-morpholino-1H-imidazo[4,5-c]pyridin-6-yl)phenyl)-1H-pyrazole-5-carboxamide], the pIC50 was 7.74.
The compound `Cc1ccc(NC(=O)c2cn(C(C)C)nc2C)cc1-c1cc2[nH]cnc2c(N2CCOCC2)n1` [Example 816, 1-isopropyl-3-methyl-N-(4-methyl-3-(4-morpholino-1H-imidazo[4,5-c]pyridin-6-yl)phenyl)-1H-pyrazole-4-carboxamide] showed a pIC50 of 7.76.
Still for that read-out and setting: for `CCOc1nnc(-c2cc(NC(=O)c3cccc(S(C)(=O)=O)c3)ccc2C)cc1N1CCOCC1` [Example 559, N-(3-(6-ethoxy-5-morpholinopyridazin-3-yl)-4-methylphenyl)-3-(methylsulfonyl)benzamide] the value was 9.05; for `Cc1ccc(NC(=O)c2ccnc(C(C)(F)F)c2)cc1-c1ccnc(N2CCOCC2)c1` [Example 1137, 2-(1,1-difluoroethyl)-N-(4-methyl-3-(2-morpholinopyridin-4-yl)phenyl)isonicotinamide], 9.21.
The same measure, in the same setting: for `CCOc1ncc(-c2cc(C(=O)Nc3cccc(C(C)(C)O)c3)ccc2C)cc1N1CCOCC1` [Example 236, 3-(6-ethoxy-5-morpholinopyridin-3-yl)-N-(3-(2-hydroxypropan-2-yl)phenyl)-4-methylbenzamide] the value was 8.80.
On to `Cc1ccc(NC(=O)c2cc(CO)cc(C(F)(F)F)c2)cc1-c1cc(N2CCOCC2)c(=O)n(C)c1` [Example 469, 3-(hydroxymethyl)-N-(4-methyl-3-(1-methyl-5-morpholino-6-oxo-1,6-dihydropyridin-3-yl)phenyl)-5-(trifluoromethyl)benzamide], for which the pIC50 is 8.51.
On the same count and under the same terms, under `Cc1ncc(NC(=O)c2cccc(C(F)(F)F)c2)cc1-c1cc(N2CCOCC2)nc(NC[C@@H](C)O)n1` [Example 743, (R)—N-(5-(2-((2-hydroxypropyl)amino)-6-morpholinopyrimidin-4-yl)-6-methylpyridin-3-yl)-3-(trifluoromethyl)benzamide] stands 8.43.

In a further assay the target is T1, b-Raf (V600E).
Experiment: not given
As to conditions: read-out: b-Raf IC-50; AlphaScreen, 60 min pre-incubation, 3 hours reaction.
Regarding `Cc1ccc(NC(=O)c2ccnc(C(C)(C)F)c2)cc1-c1cc(N2CCOC[C@@H]2C)c(=O)n(C)n1` [Example 662, (S)-2-(2-fluoropropan-2-yl)-N-(4-methyl-3-(1-methyl-5-(3-methylmorpholino)-6-oxo-1,6-dihydropyridazin-3-yl)phenyl)isonicotinamide], the pIC50 was 8.41.
In the case of `Cc1ccc(NC(=O)c2ccnc(C(C)(F)F)c2)cc1-c1cc(N2CCOC[C@@H]2C)c(=O)n(C)n1` [Example 664, (S)-2-(1,1-difluoroethyl)-N-(4-methyl-3-(1-methyl-5-(3-methylmorpholino)-6-oxo-1,6-dihydropyridazin-3-yl)phenyl)isonicotinamide], the pIC50 was 8.54.
For the compound `CCOc1nnc(-c2cc(NC(=O)c3ccc(CNC)c(C(F)(F)F)c3)cnc2C)cc1N1CCOCC1` [Example 626, N-(5-(6-ethoxy-5-morpholinopyridazin-3-yl)-6-methylpyridin-3-yl)-4-((methylamino)methyl)-3-(trifluoromethyl)benzamide], the pIC50 was 7.85.
Consider `Cc1ccc(NC(=O)c2cnnc(C3CC3)c2)cc1-c1cc(N2CCOCC2)c(=O)n(C)n1` [Example 644, 6-cyclopropyl-N-(4-methyl-3-(1-methyl-5-morpholino-6-oxo-1,6-dihydropyridazin-3-yl)-phenyl)pyridazine-4-carboxamide], for which the pIC50 is 8.54.

The assay is the same for the next values; noted with them: read-out: b-Raf IC-50; AlphaScreen, 60 min pre-incubation, reaction 3 hours at room temperature.
Take `COc1nnc(-c2cc(C(=O)Nc3ccnc(C(C)(F)F)c3)ccc2C)cc1N1CCOCC1` [Example 1019, N-(2-(1,1-difluoroethyl)pyridin-4-yl)-3-(6-methoxy-5-morpholinopyridazin-3-yl)-4-methylbenzamide]: the pIC50 is 8.95.
With `Cc1ncc(NC(=O)c2ccnc(C(C)(F)F)c2)cc1-c1cc(C2COCCO2)nc(N2CCOCC2)c1` (stereo not shown) [Example 1166, N-(2′-(1,4-dioxan-2-yl)-2-methyl-6′-morpholino-[3,4′-bipyridin]-5-yl)-2-(1,1-difluoroethyl)isonicotinamide], the pIC50 was 8.48.
Regarding `Cc1ncc(NC(=O)c2cc(C(C)(F)F)ccn2)cc1-c1cnc(OC(C)C)c(N2CCOCC2)c1` [Example 956, 4-(1,1-difluoroethyl)-N-(6′-isopropoxy-2-methyl-5-morpholino-[3,3′-bipyridin]-5-yl)picolinamide], the pIC50 was 8.53.
The same measure, in the same setting: under `Cc1ncc(NC(=O)c2cccc(C(F)(F)F)c2)cc1-c1cnc(OC[C@@H](C)O)c(N2CCOCC2)c1` [Example 984, (R)—N-(6′-(2-hydroxypropoxy)-2-methyl-5′-morpholino-[3,3′-bipyridin]-5-yl)-3-(trifluoromethyl)benzamide] stands 8.64.

Still in this assay, the particulars now being: read-out: b-Raf IC-50; Table 2; AlphaScreen, 3 hours reaction.
Turning to `Cc1ncc(NC(=O)c2ccnc(C(C)(C)F)c2)cc1-c1cnc(Cl)c(N2CCOCC2)c1` [Example 290, N-(6′-chloro-2-methyl-5′-morpholino-[3,3-bipyridin]-5-yl)-2-(2-fluoropropan-2-yl)isonicotinamide], the pIC50 is 8.22.
Take `Cc1ccc(NC(=O)c2cnccn2)cc1-c1ccnc(N2CCOCC2)c1` [Example 70, N-(4-methyl-3-(2-morpholinopyridin-4-yl)phenyl)pyrazine-2-carboxamide]: the pIC50 was 6.70.
Still for that read-out and setting: under `Cc1ccc(NC(=O)c2ccnnc2)cc1-c1ccnc(N2CCOCC2)c1` [Example 72, N-(4-methyl-3-(2-morpholinopyridin-4-yl)phenyl)pyridazine-4-carboxamide] stands 6.22.
As for `Cc1ncc(NC(=O)c2ccnc(C(C)(F)F)c2)cc1-c1cc(N2CCOCC2)c(=O)n(C)c1` [Example 391, 2-(1,1-difluoroethyl)-N-(1′,2-dimethyl-5′-morpholino-6′-oxo-1′,6′-dihydro-[3,3′-bipyridin]-5-yl)isonicotinamide], the pIC50 was 7.91.
